Measured values taken from patent US20240325461A1, “COMBINATION THERAPIES FOR THE TREATMENT OF DISEASES” (Research Development Foundation, priority 2023, published 2024).

Columns and labels:
[1] = system: ovariectomized female mice; experiment: Intraperitoneal insulin tolerance test, curative model; format: in vivo, C57BL/6J mice; conditions: test on day 52 of administration
Description: (§1) A curative mouse model for osteoporosis was used for experiments, as follows. 16-week old female C57Bl/6J mice were ovariectomized and left for 2 months to develop the symptoms of osteoporosis and postmenopausal weigh gain and glucose intolerance. Administration of the respective treatment was initiated following these 2 months after the ovariectomies, i.e, once the mice already developed the symptoms of the respective metabolic disease.
Insulin sensitivity (normalized values) was measured by intraperitoneal insulin tolerance test of ovariectomized female mice, administered with the respective treatment starting 2 months flowing the surgery, considered as day 0. Test is performed on day 52 after staring the administration.
Ovariectomy: 16 weeks old C57Bl/6J female mice, obtained through Janvier, were be anesthetised with Xylazin/Ketamin (injection of 120 μl of a mixture of 120 mg/kg ketamine and 16 mg/kg xylazine) and shaved below the ribs on the back side. Betadine was be applied to the area for appropriate disinfection. After a 1-2 cm incision through the skin and the muscle layer just below the ribs, the ovary was localized, the fallopian tube ligated with dissolving suture and the ovary removed. The muscle layer was sutured with dissolving suture, the wound closed with staples and disinfected. The same procedure was/will be performed on the other side. […]

[2] = system: ovariectomized female mice; experiment: 3-point bending test of femur, curative model; format: in vivo, C57BL/6J mice; conditions: postmortem, day 60
Description: as §1
Ovariectomy: 16 weeks old C57Bl/6J female mice, obtained through Janvier, were be anesthetised with Xylazin/Ketamin (injection of 120 μl of a mixture of 120 mg/kg ketamine and 16 mg/kg xylazine) and shaved below the ribs on the back side. Betadine was be applied to the area for appropriate disinfection. After a 1-2 cm incision through the skin and the muscle layer just below the ribs, the ovary was localized, the fallopian tube ligated with dissolving suture and the ovary removed. The muscle layer was sutured with dissolving suture, the wound closed with staples and disinfected. The same procedure was/will be performed on the other side. A dose of Tamgesic was/will be administered 4 hours after the surgery, and the staples were removed 7 days after the surgery under isoflurane anesthesia. The sham-operated animals underwent the same procedure, without ligating the fallopian tube and the ovary excision. All mice were then kept for additional 2 months after the ovariectomies before starting the respective curative treatments.
Microbiota transplantation: Lactobacillus gasseri (DSM 20604) and Parabacteroides goldsteinii (DSM 19948) were pushased from DSMZ. Lactobacillus reuteri (PTA-6475) was obtained from ATCC. […] Freshly prepared bacteria were diluted in anaerobic PBS to a final concentration equivalent to 1.5 OD/ml at 600 nm. 200 ul of this suspension was gavaged every second day to ovariectomized mice, starting 2 months post-surgery for 38 day. From day 38 of the gavage until the day od sacrifice at day 60 the concentration was equivalent to 2 OD/ml at 600 nm, of which 200 ul was gavaged.
The amount administered was 80 μg/kg body weight once per week with subcutaneous injection, in total amount of 100-200 μl per injection.

[3] = system: Procollagen Type-1 N Terminal Propeptide (P1NP); experiment: Plasma bone formation marker P1NP (ELISA); format: in vivo, mice; conditions: P. goldsteinii 1.5 OD/ml, 200 μl every second day, given with alendronate 80 μg/kg BW once a week
Description: Supplementation of P. goldsteinii increases secretion the bone formation marker P1NP, measured at Day 29 (FIG. 18A), or Day 50 (FIG. 18B) after the beginning of the treatment.
Measuring plasma bone turnover markers: After 5 h fasting (during the treatment), blood samples were collected from the tail of the mice with microvette capillary tubes containing EDTA and plasma was isolated after centrifuging 10000 g for 10 minutes. Plasma samples are collected during sacrifice (at the end of experiment) by taking 500 μl of blood from terminally anesthetized mice in tubes with 10 μl of […] EDTA, 4 μl of aprotinin (1.3%) and 4 μl of DPP-IV (10 mM), followed by centrifugation as described before. N-terminal pro-collagen type 1 extension pro-peptide (PINP) was measured with an ELISA kit (cat no:AC-33F, Immunodiagnostic Systems) according to manufacturers' instructions.

[4] = curative model; treatment started 2 months after ovariectomy; alendronate 80 μg/kg/week s.c.; HI P. goldsteinii by gavage every second day

NCCCC(O)(P(=O)(O)O)P(=O)(O)O [alendronate]
Insulin sensitivity (intraperitoneal insulin tolerance test) [1]: unaffected
Elastic energy of femurs (femur metaphysis, FIG. 10) [2]: no changes
Elastic energy, femur midshaft [2]: No changes
Stiffness, femur metaphysis [2]: corrected ovariectomy induced decreases in stiffness
Stiffness, femur midshaft [2]: No changes
Ultimate stress, femur metaphysis [2]: not observed to result in a statistically significant increase
Ultimate stress, femur midshaft [2]: not observed to result in improvements
P1NP levels after 50 days of treatment [3]: reduction in P1NP levels
Body weight gain [4]: did not alter the body weight
